Numbers after ± are expanded uncertainties.
Details: Gas chromatography

CC1=C2CC[C@@H](C)C[C@H]2OC1=O [(-)-mintlactone]
vapor or sublimation pressure (298.15 K, Metastable liquid): 0.00033 ± 5e-05 kPa | vapor or sublimation pressure (305 K, Metastable liquid): 0.00063 ± 0.00011 kPa | vapor or sublimation pressure (310 K, Metastable liquid): 0.001 ± 0.0002 kPa | vapor or sublimation pressure (315 K, Metastable liquid): 0.0015 ± 0.0004 kPa | vapor or sublimation pressure (320 K, Metastable liquid): 0.0024 ± 0.0006 kPa | vapor or sublimation pressure (325 K, Metastable liquid): 0.0035 ± 0.0008 kPa | vapor or sublimation pressure (330 K, Metastable liquid): 0.0053 ± 0.0013 kPa | vapor or sublimation pressure (335 K, Metastable liquid): 0.0077 ± 0.0017 kPa | vapor or sublimation pressure (340 K, Metastable liquid): 0.011 ± 0.002 kPa | vapor or sublimation pressure (345 K, Metastable liquid): 0.016 ± 0.002 kPa | vapor or sublimation pressure (350 K, Metastable liquid): 0.023 ± 0.004 kPa

CC1=C2CC[C@@H](C)C[C@@H]2OC1=O [(.+-.)-isomintlactone]
vapor or sublimation pressure (298.15 K, Metastable liquid): 0.00026 ± 4e-05 kPa | vapor or sublimation pressure (305 K, Metastable liquid): 0.00051 ± 9e-05 kPa | vapor or sublimation pressure (310 K, Metastable liquid): 0.00081 ± 0.00017 kPa | vapor or sublimation pressure (315 K, Metastable liquid): 0.0013 ± 0.0002 kPa | vapor or sublimation pressure (320 K, Metastable liquid): 0.0019 ± 0.0004 kPa | vapor or sublimation pressure (325 K, Metastable liquid): 0.0029 ± 0.0006 kPa | vapor or sublimation pressure (330 K, Metastable liquid): 0.0044 ± 0.001 kPa | vapor or sublimation pressure (335 K, Metastable liquid): 0.0064 ± 0.0015 kPa | vapor or sublimation pressure (340 K, Metastable liquid): 0.0093 ± 0.0021 kPa | vapor or sublimation pressure (345 K, Metastable liquid): 0.013 ± 0.002 kPa | vapor or sublimation pressure (350 K, Metastable liquid): 0.019 ± 0.004 kPa

CCCC[C@H]1OC(=O)C[C@H]1C [cis-whiskey lactone]
vapor or sublimation pressure (298.15 K, Liquid): 0.0015 ± 0.0002 kPa | vapor or sublimation pressure (305 K, Liquid): 0.0028 ± 0.0004 kPa | vapor or sublimation pressure (310 K, Liquid): 0.0043 ± 0.0009 kPa | vapor or sublimation pressure (315 K, Liquid): 0.0064 ± 0.0013 kPa | vapor or sublimation pressure (320 K, Liquid): 0.0095 ± 0.0019 kPa | vapor or sublimation pressure (325 K, Liquid): 0.014 ± 0.002 kPa | vapor or sublimation pressure (330 K, Liquid): 0.02 ± 0.004 kPa | vapor or sublimation pressure (335 K, Liquid): 0.029 ± 0.006 kPa | vapor or sublimation pressure (340 K, Liquid): 0.041 ± 0.009 kPa | vapor or sublimation pressure (345 K, Liquid): 0.057 ± 0.011 kPa | vapor or sublimation pressure (350 K, Liquid): 0.079 ± 0.013 kPa

CCCC[C@H]1OC(=O)C[C@@H]1C [trans-whiskey lactone]
vapor or sublimation pressure (298.15 K, Liquid): 0.002 ± 0.0003 kPa | vapor or sublimation pressure (305 K, Liquid): 0.0036 ± 0.0007 kPa | vapor or sublimation pressure (310 K, Liquid): 0.0056 ± 0.0011 kPa | vapor or sublimation pressure (315 K, Liquid): 0.0084 ± 0.0017 kPa | vapor or sublimation pressure (320 K, Liquid): 0.012 ± 0.003 kPa | vapor or sublimation pressure (325 K, Liquid): 0.018 ± 0.004 kPa | vapor or sublimation pressure (330 K, Liquid): 0.026 ± 0.006 kPa | vapor or sublimation pressure (335 K, Liquid): 0.037 ± 0.007 kPa | vapor or sublimation pressure (340 K, Liquid): 0.052 ± 0.011 kPa | vapor or sublimation pressure (345 K, Liquid): 0.072 ± 0.013 kPa | vapor or sublimation pressure (350 K, Liquid): 0.099 ± 0.016 kPa

From the NIST ThermoML archive (doi:10.1016/j.jct.2017.02.010)
